Source: patent US7825139B2, “Compounds and methods for selective inhibition of dipeptidyl peptidase-IV” (Forest Laboratories Holdings Limited (BM), priority 2005, dated 2010)

Legend:
DPP-VIII = target: T1, DPP-VIII (Homo sapiens, UniProt Q6V1X1); assay: DPP-VIII IC50 assay (Ala-Pro AMC), selectivity versus DPP-IV; format: biochemical
T1 construct: The full length cDNAs for human DPP-VII, DPP-VIII, DPP-IX, and FAP were obtained from Open Biosystems; 6xHis (C); made in house
From the text: The term “selectivity ratio” refers to the IC50 value generated in a biochemical assay measuring inhibition of DPP-IV compared to the IC50 value generated in a biochemical assay measuring inhibition of another DPP family member (e.g. DPP-VII, DPP-VIII, DPP-IX or FAP) whereby the ratio is obtained by dividing the IC50 value of DPP-VII, DPP-VIII, DPP-IX or FAP by the IC50 value for DPP-IV.
Materials. S9 insect cells and Sf-900 II SFM media were from Invitrogen. Anti-FLAG M2 immunoaffinity gel was from Sigma. Gly-Pro-AMC, Lys-Pro AMC, and Ala-Pro AMC were from Enzyme Systems. IC50 calculations were performed by non-linear regression analysis using Prism software (GraphPad). Preparation of DPP-VII, DPP-VIII, DPP-IX, and FAP baculovirus constructs. The full length cDNAs for human DPP-VII, DPP-VIII, DPP-IX, and FAP were obtained from Open Biosystems. […] Baculovirus was prepared using the Bac-to-Bac Baculovirus Expression System (Invitrogen). The cDNAs in the final baculovirus constructs were sequence verified. Baculovirus expression. […] Infection with DPP-VII, DPP-VIII, DPP-IX, and FAP baculoviral constructs were all performed at an MOI of 4. The infected cells were grown for 48 hours and the cell pellets harvested and frozen until purification. DPP-VII was purified using anti-FLAG immunoaffinity gel according to the manufacturer's instructions. DPP-VIII, DPP-IX, and FAP were purified using a B-PER 6xHis Fusion Protein Column Purification Kit from Pierce. IC50 assay. Recombinant DPPs were diluted in reaction buffer to give fluorescence values of 5000-20000 counts in the “enzyme only wells” 20 min after addition of substrate at 27° C. Reaction buffers were 25 mM (2-(4-Morpholino)-Ethane Sulfonic Acid), pH 5.5 for DPP-VII, 25 mM Tris, pH 8, 1% Triton X-100, 100 mM NaCl for DPP-VIII, and 25 mM Tris pH 8 for DPP-1× and FAP. Test wells in a 96-well microtiter plate contained 88 μL of diluted DPP and 2.5 ul of titrated compound in 50 mM glycine, pH 2.6. “Enzyme only” wells contained 88 uL of diluted DPP and 2.5 ul of glycine buffer. “No enzyme” wells contained 88 uL of reaction buffer without DPP and 2.5 ul of glycine buffer. All assays were done in triplicate. The plate was incubated at 27° C. for 10 min and then cooled on ice for 10 min. Ten microliters of substrate diluted in reaction buffer (40 uM final concentration) without Triton or NaCl were then added to all wells followed by incubation at 27C for 20 min. Substrates were Lys-Pro AMC for DPP-VII, and Ala-Pro AMC for DPP-VIII, DPP-IX, and FAP. Fluorescence in each well was measured at settings of 380/460 nm.

Zucker Obese Fatty rats = assay: Toxicity in rats, oral dosing; format: in vivo, rat; details: 5-10 mg/kg, 4-24 hrs post-dose, all Zucker Obese Fatty rats tested
From the text: Toxicity in Rats: The Zucker Diabetic Fatty (ZDF) rat model can be used to investigate the effects of the compounds of the invention on both the treatment and prevention of diabetes as rats of this sub-strain are initially pre-diabetic although they develop severe type 2 diabetes characterized by increased HbAl c levels over a period of 6 weeks. The same strain can be used to predict the clinical efficacy of other anti-diabetic drug types. For example, the model predicts the potency and limited clinical efficacy of thiazolidinedione insulin sensitizer compounds. The experimental protocol requires p.o. (oral gavage) administration of either vehicle or test article at indicated doses either QD or BID using a gastric feeding needle with a ball tip, without anesthesia, using hand restraint to adult rats which have been fasted overnight. Animals are monitored for clinical signs at 1, 2, 4 and 8 hour time intervals following the treatment regimen. Whole blood samples (to a maximum level of 10% of the total blood volume every 2 weeks) were collected from the animals from the retro-orbital sinus in accordance with the guidelines of the IACUC committee.
The expected therapeutic dose level could not be reached for the comparative compounds before acute toxicity was observed.

dogs = assay: Toxicity in dogs, escalated oral dose study; format: in vivo; details: at 2.0 mg/kg, within 2-4 hours of dosing
Experimental: The 2.0 mg/kg dose of compound 19 correlated with the time above the DPP-VIII IC90 but not with the time above DPP-IX IC90. By comparison, a previously known selective inhibitor (compound 10 in U.S. patent application Ser. […]

T1 sequence (Q6V1X1 whole entry): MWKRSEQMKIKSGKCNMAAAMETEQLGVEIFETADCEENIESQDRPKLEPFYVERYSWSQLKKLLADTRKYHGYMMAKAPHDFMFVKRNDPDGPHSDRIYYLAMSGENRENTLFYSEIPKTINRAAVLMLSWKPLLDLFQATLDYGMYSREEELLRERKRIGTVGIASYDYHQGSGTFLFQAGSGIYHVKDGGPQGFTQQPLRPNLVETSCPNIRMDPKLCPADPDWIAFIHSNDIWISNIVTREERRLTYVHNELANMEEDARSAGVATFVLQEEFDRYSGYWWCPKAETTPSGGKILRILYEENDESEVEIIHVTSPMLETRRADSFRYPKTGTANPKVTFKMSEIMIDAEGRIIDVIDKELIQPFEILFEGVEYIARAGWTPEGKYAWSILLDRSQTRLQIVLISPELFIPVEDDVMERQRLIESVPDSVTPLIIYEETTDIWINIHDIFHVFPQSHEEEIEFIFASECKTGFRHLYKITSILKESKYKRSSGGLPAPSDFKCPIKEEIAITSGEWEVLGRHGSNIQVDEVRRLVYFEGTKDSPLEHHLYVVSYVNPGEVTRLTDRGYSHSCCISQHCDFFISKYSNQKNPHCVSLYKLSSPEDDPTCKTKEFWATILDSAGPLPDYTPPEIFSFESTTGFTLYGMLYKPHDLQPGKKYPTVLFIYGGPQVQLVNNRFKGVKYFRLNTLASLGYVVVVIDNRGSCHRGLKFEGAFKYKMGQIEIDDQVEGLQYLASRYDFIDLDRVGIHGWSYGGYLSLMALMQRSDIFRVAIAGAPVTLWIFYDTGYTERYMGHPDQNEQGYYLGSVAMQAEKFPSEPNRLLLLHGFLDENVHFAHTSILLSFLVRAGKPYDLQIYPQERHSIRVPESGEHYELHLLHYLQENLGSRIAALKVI

SMILES: O=C(CNC1CCCC1)N1CCC[C@H]1B(O)O [Compound 19]
- inhibition of DPP-VIII (in words) (DPP-VIII): potent inhibitor
- acute toxicity in rats (Zucker Obese Fatty rats): acute toxicity (death)
- toxicity in dogs (dogs): severe emesis and diarrhea
